Test results reported in ChEMBL document CHEMBL1681651, “A broad spectrum anticancer nucleoside with selective toxicity against human colon cells in vitro” (2011).
Where “and” joins values, the source holds several entries; their conditions need not be identical. Identical values can stand only once.

Key:
Type in all cases: functional
HCT-116 = test: Growth inhibition of human HCT116 cells after 48 hrs by […] growth inhibition assay; conditions: HCT-116, 48 h
TK-10 = test: Growth inhibition of human TK10 cells after 48 hrs by […] growth inhibition assay; conditions: TK-10, 48 h
SF-268 = test: Growth inhibition of human SF268 cells assessed as cell growth at 0.1 uM after 48 hrs by SRB assay; conditions: SF-268, 48 h, read-out: Activity
PC-3 [1] = test: Growth inhibition of human PC3 cells assessed as cell growth at 0.1 uM after 48 hrs by SRB assay; conditions: PC-3, 48 h, read-out: Activity
NCI-H226 = test: Growth inhibition of human NCI-H226 cells assessed as cell growth at 100 uM after 48 hrs by SRB assay; conditions: NCI-H226, 48 h, read-out: Activity
HT-29 = test: Growth inhibition of human HT-29 cells assessed as cell growth at 100 uM after 48 hrs by SRB assay; conditions: HT-29, 48 h, read-out: Activity
PC-3 [2] = test: Growth inhibition of human PC3 cells assessed as cell growth at 100 uM after 48 hrs by SRB assay; conditions: PC-3, 48 h, read-out: Activity
PC-3 [3] = test: Growth inhibition of human PC3 cells assessed as cell growth at 1 mM after 48 hrs by SRB assay; conditions: PC-3, 48 h, read-out: Activity
MCF7 = test: Growth inhibition of human MCF7 cells assessed as cell growth at 1 mM after 48 hrs by SRB assay; parameters: Activity: scale not given: the % may be the effect or the level left
MDA-MB-468 = test: Growth inhibition of human MDA-MB-468 cells assessed as cell growth at 10 uM after 48 hrs by SRB assay; conditions: MDA-MB-468, 48 h, read-out: Activity
[4] = Growth inhibition of human Hs 578T cells assessed as cell growth at 1 uM after 48 hrs by SRB assay; conditions: read-out: Activity
SR [5] = test: Growth inhibition of human SR cells after 48 hrs by SRB assay
HL-60(TB) [6] = test: Growth inhibition of human HL-60(TB) cells after 48 hrs by […] growth inhibition assay; conditions: HL-60, 48 h
K562 [7] = test: Growth inhibition of human K562 cells after 48 hrs by […] growth inhibition assay; conditions: K562, 48 h
MOLT-4 [8] = test: Growth inhibition of human MOLT4 cells after 48 hrs by […] growth inhibition assay; conditions: MOLT-4, 48 h
K562 [9] = test: Growth inhibition of human K562 cells assessed as cell growth at 0.1 uM after 48 hrs by SRB assay; conditions: K562, 48 h, read-out: Activity
MOLT-4 [10] = test: Growth inhibition of human MOLT4 cells assessed as cell growth at 0.1 uM after 48 hrs by SRB assay; conditions: MOLT-4, 48 h, read-out: Activity
SR [11] = test: Growth inhibition of human SR cells assessed as cell growth at 0.1 uM after 48 hrs by SRB assay; conditions: read-out: Activity
SW-620 [12] = test: Growth inhibition of human SW620 cells assessed as cell growth at 0.1 uM after 48 hrs by SRB assay; conditions: SW-620, 48 h, read-out: Activity
SK-MEL-28 [13] = test: Growth inhibition of human SK-MEL-28 cells assessed as cell growth at 0.1 uM after 48 hrs by SRB assay; conditions: SK-MEL-28, 48 h, read-out: Activity
[14] = Growth inhibition of human Hs 578T cells assessed as cell growth at 0.1 uM after 48 hrs by SRB assay; conditions: read-out: Activity
K562 [15] = test: Growth inhibition of human K562 cells assessed as cell growth at 100 uM after 48 hrs by SRB assay; conditions: K562, 48 h, read-out: Activity
MOLT-4 [16] = test: Growth inhibition of human MOLT4 cells assessed as cell growth at 100 uM after 48 hrs by SRB assay; conditions: MOLT-4, 48 h, read-out: Activity
SR [17] = test: Growth inhibition of human SR cells assessed as cell growth at 100 uM after 48 hrs by SRB assay; conditions: read-out: Activity
SW-620 [18] = test: Growth inhibition of human SW620 cells assessed as cell growth at 100 uM after 48 hrs by SRB assay; conditions: SW-620, 48 h, read-out: Activity
SK-MEL-28 [19] = test: Growth inhibition of human SK-MEL-28 cells assessed as cell growth at 100 uM after 48 hrs by SRB assay; conditions: SK-MEL-28, 48 h, read-out: Activity
[20] = Growth inhibition of human Hs 578T cells assessed as cell growth at 100 uM after 48 hrs by SRB assay; conditions: read-out: Activity
T47D = test: Growth inhibition of human T47D cells assessed as cell growth at 100 uM after 48 hrs by SRB assay; conditions: read-out: Activity
HL-60(TB) [21] = test: Growth inhibition of human HL-60(TB) cells assessed as cell growth at 1 mM after 48 hrs by SRB assay; conditions: HL-60, 48 h, read-out: Activity
K562 [22] = test: Growth inhibition of human K562 cells assessed as cell growth at 1 mM after 48 hrs by SRB assay; conditions: K562, 48 h, read-out: Activity
MOLT-4 [23] = test: Growth inhibition of human MOLT4 cells assessed as cell growth at 1 mM after 48 hrs by SRB assay; conditions: MOLT-4, 48 h, read-out: Activity
SR [24] = test: Growth inhibition of human SR cells assessed as cell growth at 1 mM after 48 hrs by SRB assay; conditions: read-out: Activity
SW-620 [25] = test: Growth inhibition of human SW620 cells assessed as cell growth at 1 mM after 48 hrs by SRB assay; conditions: SW-620, 48 h, read-out: Activity
SK-MEL-28 [26] = test: Growth inhibition of human SK-MEL-28 cells assessed as cell growth at 1 mM after 48 hrs by SRB assay; conditions: SK-MEL-28, 48 h, read-out: Activity
[27] = Growth inhibition of human Hs 578T cells assessed as cell growth at 1 mM after 48 hrs by SRB assay; conditions: read-out: Activity
SR [28] = test: Growth inhibition of human SR cells assessed as cell growth at 1 uM after 48 hrs by SRB assay; conditions: read-out: Activity
SK-MEL-28 [29] = test: Growth inhibition of human SK-MEL-28 cells assessed as cell growth at 1 uM after 48 hrs by SRB assay; conditions: SK-MEL-28, 48 h, read-out: Activity
[30] = read-out: LC50 (the source's name)
[31] = read-out: pLC50 (the source's name) (converted)

## CNC(=O)NC[C@H]1O[C@@H](n2cnc3c(NC(=O)Nc4ccccc4)ncnc32)[C@H](O[Si](C)(C)C(C)(C)C)[C@@H]1O[Si](C)(C)C(C)(C)C
HCT-116; read-out: GI50
  GI50: 2.11 µM
HCT-116; [30]
  CC50: 8.8 µM
HCT-116; read-out: TGI
  TGI: 4.31 µM
HCT-116; read-out: pGI50 (converted)
  GI50: 2.09 µM
HCT-116; [31]
  CC50: 8.71 µM
HCT-116; read-out: pTGI (converted)
  TGI: 4.27 µM
TK-10; read-out: GI50
  GI50: 4.29 µM
TK-10; [30]
  CC50: > 100 µM
TK-10; read-out: TGI
  TGI: 72.6 µM
TK-10; read-out: pGI50 (converted)
  GI50: 4.27 µM
TK-10; [31]
  CC50: > 100 µM
TK-10; read-out: pTGI (converted)
  TGI: 72.4 µM
SF-268
  growth at 0.1 µM: 104%
PC-3 [1]
  growth at 0.1 µM: 93%
NCI-H226
  growth at 100 µM: -7%
HT-29
  growth at 100 µM: -80%
PC-3 [2]
  growth at 100 µM: 6%
PC-3 [3]
  growth at 1000 µM: 4%
MCF7
  Activity: -21% and -16%
MDA-MB-468
  growth at 10 µM: 99%

## CNC(=O)NC[C@H]1O[C@@H](n2cnc3c(NC(=O)Nc4ccccc4)ncnc32)[C@H](O[Si](C)(C)C(C)(C)C)[C@@H]1CC(=O)N(C)OC
[4]
  growth at 1 µM: 98%
SR [5]; read-out: GI50
  GI50: 1.27 µM
SR [5]; [30]
  CC50: 9.43 µM
SR [5]; read-out: TGI
  TGI: 3.46 µM
SR [5]; read-out: pGI50 (converted)
  GI50: 1.26 µM
SR [5]; [31]
  CC50: 9.33 µM
SR [5]; read-out: pTGI (converted)
  TGI: 3.47 µM
HL-60(TB) [6]; read-out: GI50
  GI50: 1.81 µM
HL-60(TB) [6]; [30]
  CC50: > 100 µM
HL-60(TB) [6]; read-out: TGI
  TGI: 4.34 µM
HL-60(TB) [6]; read-out: pGI50 (converted)
  GI50: 1.82 µM
HL-60(TB) [6]; [31]
  CC50: 16.2 µM
HL-60(TB) [6]; read-out: pTGI (converted)
  TGI: 4.37 µM
K562 [7]; read-out: GI50
  GI50: 3.12 µM
K562 [7]; read-out: LC50
  LC50 (concentration killing 50% of cells): > 100 µM
K562 [7]; read-out: TGI
  TGI: > 100 µM
K562 [7]; read-out: pGI50 (converted)
  GI50: 3.09 µM
K562 [7]; read-out: pLC50 (converted)
  LC50 (concentration killing 50% of cells): > 100 µM
K562 [7]; read-out: pTGI (converted)
  TGI: > 100 µM
MOLT-4 [8]; read-out: GI50
  GI50: 2.13 µM
MOLT-4 [8]; read-out: LC50
  LC50: > 100 µM
MOLT-4 [8]; read-out: TGI
  TGI: 9.36 µM
MOLT-4 [8]; read-out: pGI50 (converted)
  GI50: 2.24 µM
MOLT-4 [8]; read-out: pLC50 (converted)
  LC50: > 100 µM
MOLT-4 [8]; read-out: pTGI (converted)
  TGI: 9.33 µM
HCT-116; read-out: GI50
  GI50: 4.2 µM
HCT-116; [30]
  CC50: > 100 µM
HCT-116; read-out: TGI
  TGI: > 100 µM
HCT-116; read-out: pGI50 (converted)
  GI50: 4.17 µM
HCT-116; [31]
  CC50: > 100 µM
HCT-116; read-out: pTGI (converted)
  TGI: > 100 µM
TK-10; read-out: GI50
  GI50: 20.6 µM
TK-10; [30]
  CC50: > 100 µM
TK-10; read-out: TGI
  TGI: > 100 µM
TK-10; read-out: pGI50 (converted)
  GI50: 20.4 µM
TK-10; [31]
  CC50: > 100 µM
TK-10; read-out: pTGI (converted)
  TGI: > 100 µM
K562 [9]
  growth at 0.1 µM: 95%
MOLT-4 [10]
  growth at 0.1 µM: 96%
SR [11]
  growth at 0.1 µM: 85%
SW-620 [12]
  growth at 0.1 µM: 99%
SF-268
  growth at 0.1 µM: 98%
SK-MEL-28 [13]
  growth at 0.1 µM: 97%
[14]
  growth at 0.1 µM: 98%
K562 [15]
  growth at 100 µM: 17%
MOLT-4 [16]
  growth at 100 µM: -2%
SR [17]
  growth at 100 µM: -53%
NCI-H226
  growth at 100 µM: 66%
HT-29
  growth at 100 µM: 32%
SW-620 [18]
  growth at 100 µM: 65%
SK-MEL-28 [19]
  growth at 100 µM: 44%
[20]
  growth at 100 µM: 40%
T47D
  growth at 100 µM: 56%
HL-60(TB) [21]
  growth at 1000 µM: -58%
K562 [22]
  growth at 1000 µM: 24%
MOLT-4 [23]
  growth at 1000 µM: -5%
SR [24]
  growth at 1000 µM: -56%
SW-620 [25]
  growth at 1000 µM: 50%
SK-MEL-28 [26]
  growth at 1000 µM: 27%
[27]
  growth at 1000 µM: 12%
SR [28]
  growth at 1 µM: 89%
SK-MEL-28 [29]
  growth at 1 µM: 106%
